Like-named read-outs stand apart in the source and are kept apart here.
What was measured:
[1] = molecular target: T1, human GIP receptor (hGIPR) (Homo sapiens, UniProt P48546); assay: [125I]-GIP binding, SPA with membranes of CHO cells expressing hGIPR
T1 construct: expressed in transfected cells; crude membranes
T1 sequence (P48546 22-466): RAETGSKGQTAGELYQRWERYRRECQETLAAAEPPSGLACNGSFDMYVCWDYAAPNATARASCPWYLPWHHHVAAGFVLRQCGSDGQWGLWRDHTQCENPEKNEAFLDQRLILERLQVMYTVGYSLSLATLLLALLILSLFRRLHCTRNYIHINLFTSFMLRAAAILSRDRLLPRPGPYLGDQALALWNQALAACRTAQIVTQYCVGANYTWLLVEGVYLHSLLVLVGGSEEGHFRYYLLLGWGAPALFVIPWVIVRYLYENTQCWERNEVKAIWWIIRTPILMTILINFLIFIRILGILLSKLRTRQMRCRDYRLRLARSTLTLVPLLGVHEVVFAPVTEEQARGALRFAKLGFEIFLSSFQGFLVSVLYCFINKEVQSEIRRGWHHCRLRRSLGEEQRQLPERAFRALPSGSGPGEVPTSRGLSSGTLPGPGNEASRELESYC
Experimental: Two methods are used for the preparation of crude cell membranes.
Method 1: Frozen cell pellets are lysed on ice in hypotonic buffer containing 50 mM Tris HCl, pH 7.5, and Roche Complete™ Protease Inhibitors with EDTA. […] The homogenate is centrifuged at 4° C. at 1100 × g for 10 minutes. The supernatant is collected and stored on ice while the pellets are resuspended in homogenization buffer and rehomogenized as described above. The homogenate is centrifuged at 1100 × g for 10 minutes. The second supernatant is combined with the first supernatant and centrifuged at 35000 × g for 1 hour at 4° C. The resulting membrane pellet is resuspended in homogenization buffer containing protease inhibitors at approximately 1 to 3 mg/mL, quick frozen in liquid nitrogen and stored as aliquots in a -80° C. freezer until use.
The homogenate is centrifuged at 4° C. at 1800 × g for 15 minutes. The supernatant is collected and stored on ice while the pellets are resuspended in homogenization buffer (without DNAse I) and rehomogenized as described above. The homogenate is centrifuged at 1800 × g for 15 minutes. The second supernatant is combined with the first supernatant and centrifuged an additional time at 1800 × g for 15 minutes. The overall supernatant is then centrifuged at 25000 × g for 30 minutes at 4° C. The resulting membrane pellet is resuspended in homogenization buffer (without DNAse I) containing protease inhibitors at approximately 1 to 3 mg/mL and stored as aliquots in a -80° C. freezer until use.
The binding buffer contains 25 mM HEPES, pH 7.4, 2.5 mM CaCl2, 1 mM MgCl2, 0.1% (w/v) bacitracin, 0.003% (w/v) TWEEN®-20, and Roche Complete™ Protease Inhibitors without EDTA. Peptides and GIP are thawed and 3 fold serially diluted in 100% DMSO (10 point concentration response curves). […] Plates are sealed and mixed on a plate shaker (setting 6) for 1 minute and read with a PerkinElmer Trilux MicroBeta® scintillation counter after 2.5 to 12 hours of incubation/settling time at room temperature.
Raw CPM data for concentration curves of peptides, Gcg, GLP-1, or GIP are converted to percent inhibition by subtracting nonspecific binding (binding in the presence of excess unlabeled Gcg, GLP-1, or GIP, respectively) from the individual CPM values and dividing by the total binding signal, also corrected by subtracting nonspecific binding. Data are analyzed using four-parameter (curve maximum, curve minimum, IC50, Hill slope) nonlinear regression routines (Genedata Screener, version 12.0.4, Genedata AG, Basal, Switzerland). […] Values for Ki are reported as the geometric mean, with error expressed as the standard error of the mean (SEM) and n is equal to the number of independent replicates (determined in assays performed on different days). Geometric Means are calculated as follows: […]
The Ki Ratio (Ki for native control peptide/Ki for test compound) at each receptor and each species is calculated. The Ki Ratio is a rapid indication of the apparent affinity of a peptide compared to the native control peptide.
n=⅟x means that only one value out of the total number of replicates (x) is used to express the mean. SEM is only calculated when n=2 or greater non-qualified results exist. Means are expressed as GeoMetric means with the standard error of the mean (SEM) and the number of replicates (n) indicated in parenthesis.

hGLP-1R = hGLP-1R (Homo sapiens, UniProt P43220); assay: Functional cAMP formation (HTRF) in HEK-293 clonal cells expressing hGLP-1R, 0.1% bovine casein, without or with 1.0% human serum albumin; type: cell-based; parameters: expressed in transfected cells; settings: for Emax: percent of maximal response to GLP-1(7-36)NH2; for EC50: cAMP
Sequence of hGLP-1R (P43220 24-463): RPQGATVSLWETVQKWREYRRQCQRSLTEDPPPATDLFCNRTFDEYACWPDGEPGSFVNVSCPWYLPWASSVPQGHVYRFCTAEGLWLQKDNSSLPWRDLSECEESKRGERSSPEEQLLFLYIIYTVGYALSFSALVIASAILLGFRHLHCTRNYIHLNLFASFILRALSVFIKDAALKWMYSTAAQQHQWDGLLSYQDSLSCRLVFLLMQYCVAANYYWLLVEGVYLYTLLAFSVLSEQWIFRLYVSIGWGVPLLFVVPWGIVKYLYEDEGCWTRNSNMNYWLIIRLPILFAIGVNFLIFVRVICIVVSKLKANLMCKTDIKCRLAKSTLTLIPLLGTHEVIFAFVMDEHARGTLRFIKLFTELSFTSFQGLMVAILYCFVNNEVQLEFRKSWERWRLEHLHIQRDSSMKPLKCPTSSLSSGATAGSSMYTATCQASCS
Procedure, shortened: (§1)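 Cells were stimulated with peptide for 30 min at 37° C, then intracellular cAMP was measured by competitive HTRF (665/620 nm ratio) and converted to nM using a cAMP standard curve. Relative EC50 and Emax came from four-parameter logistic fits of percent maximal response against peptide concentration.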

hGCGR = molecular target: T2, hGCGR (Homo sapiens, UniProt P47871); assay: Functional cAMP formation (HTRF) in HEK-293 clonal cells expressing hGCGR, 0.1% bovine casein, without or with 1.0% human serum albumin; type: cell-based; settings: cAMP, 37° C.
T2 construct: expressed in transfected cells
T2 sequence (P47871 26-477): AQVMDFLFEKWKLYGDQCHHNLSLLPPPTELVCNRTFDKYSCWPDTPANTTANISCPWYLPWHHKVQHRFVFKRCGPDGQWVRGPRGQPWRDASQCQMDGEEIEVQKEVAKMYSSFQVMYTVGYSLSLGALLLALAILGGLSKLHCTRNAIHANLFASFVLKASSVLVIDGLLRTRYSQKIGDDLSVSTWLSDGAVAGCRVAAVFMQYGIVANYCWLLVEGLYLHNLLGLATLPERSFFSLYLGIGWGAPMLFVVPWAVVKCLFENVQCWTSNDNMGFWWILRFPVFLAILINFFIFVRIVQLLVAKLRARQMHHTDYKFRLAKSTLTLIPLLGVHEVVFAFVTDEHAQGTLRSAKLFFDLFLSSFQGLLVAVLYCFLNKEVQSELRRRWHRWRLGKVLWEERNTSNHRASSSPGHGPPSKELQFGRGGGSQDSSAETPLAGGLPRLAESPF
Procedure, shortened: as §1

hGIPR = molecular target: T3, hGIPR (Homo sapiens, UniProt P48546); assay: Functional cAMP formation (HTRF) in HEK-293 clonal cells expressing hGIPR, 0.1% bovine casein, without or with 1.0% human serum albumin; type: cell-based; settings: for Emax: percent of maximal response to GIP(1-42)NH2; for EC50: cAMP
T3 construct: expressed in transfected cells
T3 sequence (P48546 22-466): T1 sequence (P48546 22-466)
Procedure, shortened: as §1

[2] = molecular target: T4, human GLP-1 receptor (hGLP-1R) (Homo sapiens, UniProt P43220); assay: [125I]-GLP-1 binding, SPA with membranes of HEK293 cells expressing hGLP-1R
T4 construct: expressed in transfected cells; crude membranes
T4 sequence (P43220 24-463): as the sequence (P43220 24-463) above

[3] = HEK293, read-out: hGLP-1R Emax, % ± SEM, cAMP, 37° C., 0.1% bovine casein, arithmetic mean
[4] = hGLP-1R EC50, nM (SEM, n), 37° C., 0.1% bovine casein (no human serum albumin), geometric mean
[5] = hGCGR EC50, nM (SEM, n), 0.1% bovine casein (no human serum albumin), geometric mean
[6] = hGCGR EC50, nM (SEM, n), 0.1% bovine casein and 1.0% human serum albumin, geometric mean (SEM, n)
[7] = HEK293, read-out: hGIPR Emax, % ± SEM, cAMP, 37° C., 0.1% bovine casein and 1.0% human serum albumin
[8] = hGIPR EC50, nM (SEM, n), 37° C., 0.1% bovine casein (no human serum albumin), geometric mean

Compound | Ki ([1]; human GIPR, geometric mean (SEM, n), read-out: Binding Affinity Ki, nM (SEM, n) hGIPR) [nM] | Emax (hGLP-1R; HEK293, cAMP, 37° C., 0.1% bovine casein, arithmetic mean, read-out: hGLP-1R Emax, % ± SEM) [%] | EC50 (hGLP-1R; 37° C., 0.1% bovine casein (no human serum albumin), geometric mean, read-out: hGLP-1R EC50, nM (SEM, n)) [nM] | EC50 (hGLP-1R; 37° C., 0.1% bovine casein and 1.0% human serum albumin, geometric mean (SEM, n), read-out: hGLP-1R EC50, nM (SEM, n)) [nM] | EC50 (hGCGR; 0.1% bovine casein (no human serum albumin), geometric mean, read-out: hGCGR EC50, nM (SEM, n)) [nM] | EC50 (hGCGR; 0.1% bovine casein and 1.0% human serum albumin, geometric mean (SEM, n), read-out: hGCGR EC50, nM (SEM, n)) [nM] | Emax (hGIPR; HEK293, cAMP, 37° C., 0.1% bovine casein and 1.0% human serum albumin, read-out: hGIPR Emax, % ± SEM) [%] | EC50 (hGIPR; 37° C., 0.1% bovine casein (no human serum albumin), geometric mean, read-out: hGIPR EC50, nM (SEM, n)) [nM] | EC50 (hGIPR; 37° C., 0.1% bovine casein and 1.0% human serum albumin, geometric mean (SEM, n), read-out: hGIPR EC50, nM (SEM, n)) [nM] | Ki [1] [nM] | Emax (hGLP-1R; [3]) [%] | EC50 (hGLP-1R; [4]) [nM] | EC50 (hGCGR; [5]) [nM] | EC50 (hGCGR; [6]) [nM] | Emax (hGIPR; [7]) [%] | EC50 (hGIPR; [8]) [nM] | Ki [2] [nM] | Emax (hGLP-1R; HEK293, read-out: hGLP-1R Emax, % ± SEM, cAMP, 37° C., 0.1% bovine casein and 1.0% human serum albumin) [%]
CC[C@H](C)[C@H](NC(=O)[C@H](CC(C)C)NC(=O)[C@](C)(Cc1ccc(O)cc1)NC(=O)[C@H](CCCCNC(=O)COCCOCCNC(=O)COCCOCCNC(=O)COCCOCCNC(=O)CC[C@H](NC(=O)CCCCCCCCCCCCC(=O)O)C(=O)O)NC(=O)[C@@H](NC(=O)[C@H](Cc1ccccc1)NC(=O)[C@H](CCCN)NC(=O)C(C)(C)NC(=O)[C@H](CCC(N)=O)NC(=O)[C@H](C)NC(=O)[C@H](CCC(N)=O)NC(=O)[C@H](CCCN)NC(=O)[C@H](CC(=O)O)NC(=O)[C@H](CC(C)C)NC(=O)[C@](C)(CC(C)C)NC(=O)[C@@H](NC(=O)C(C)(C)NC(=O)[C@H](Cc1ccncc1)NC(=O)[C@H](CC(=O)O)NC(=O)[C@H](CO)NC(=O)[C@@H](NC(=O)[C@](C)(Cc1ccccc1F)NC(=O)[C@@H](NC(=O)CNC(=O)[C@H](CCC(=O)O)NC(=O)C(C)(C)NC(=O)[C@@H](N)Cc1ccc(O)cc1)[C@@H](C)O)[C@@H](C)O)[C@@H](C)CC)[C@@H](C)CC)C(=O)N[C@@H](CCCCNC(=O)COCCOCCNC(=O)COCCOCCNC(=O)COCCOCCNC(=O)CC[C@H](NC(=O)CCCCCCCCCCCCC(=O)O)C(=O)O)C(=O)NCC(=O)NCC(=O)N1CCC[C@H]1C(=O)N[C@@H](CO)C(=O)N[C@@H](CO)C(=O)NCC(=O)N[C@@H](C)C(=O)N1CCC[C@H]1C(=O)N1CCC[C@H]1C(=O)N1CCC[C@H]1C(=O)N[C@@H](CO)C(N)=O [Example 476] | 0.0351 | 114 | 0.117 | 1.5 | > 9950 | > 9950 | 81.8 | 0.00886 | 0.154 | – | – | – | – | – | – | – | – | –
CC[C@H](C)[C@H](NC(=O)[C@H](CC(C)C)NC(=O)[C@](C)(Cc1ccc(O)cc1)NC(=O)[C@H](CCCCNC(=O)CCCCCNC(=O)COCCOCCNC(=O)CC[C@H](NC(=O)CCCCCCCCCOc1ccc(C(=O)O)cc1)C(=O)O)NC(=O)[C@@H](NC(=O)[C@H](Cc1ccccc1)NC(=O)[C@H](CCCN)NC(=O)C(C)(C)NC(=O)[C@H](CCC(N)=O)NC(=O)[C@H](C)NC(=O)[C@H](CCC(N)=O)NC(=O)[C@H](CCCN)NC(=O)[C@H](CC(=O)O)NC(=O)[C@H](CC(C)C)NC(=O)[C@](C)(CC(C)C)NC(=O)[C@@H](NC(=O)C(C)(C)NC(=O)[C@H](Cc1ccncc1)NC(=O)[C@H](CC(=O)O)NC(=O)[C@H](CO)NC(=O)[C@@H](NC(=O)[C@](C)(Cc1ccccc1F)NC(=O)[C@@H](NC(=O)CNC(=O)[C@H](CCC(=O)O)NC(=O)C(C)(C)NC(=O)[C@@H](N)Cc1ccc(O)cc1)[C@@H](C)O)[C@@H](C)O)[C@@H](C)CC)[C@@H](C)CC)C(=O)N[C@@H](CCCCNC(=O)CCCCCNC(=O)COCCOCCNC(=O)CC[C@H](NC(=O)CCCCCCCCCOc1ccc(C(=O)O)cc1)C(=O)O)C(=O)NCC(=O)NCC(=O)N1CCC[C@H]1C(=O)N[C@@H](CO)C(=O)N[C@@H](CO)C(=O)NCC(=O)N[C@@H](C)C(=O)N1CCC[C@H]1C(=O)N1CCC[C@H]1C(=O)N1CCC[C@H]1C(=O)N[C@@H](CO)C(N)=O [Example 455] | – | – | – | – | – | – | – | – | – | 0.0143 | 117 | 0.219 | > 9950 | > 9950 | 91.8 | 0.0146 | – | –
CC[C@H](C)[C@H](NC(=O)[C@H](CC(C)C)NC(=O)[C@](C)(Cc1ccc(O)cc1)NC(=O)[C@H](CCCCNC(=O)COCCOCCNC(=O)COCCOCCNC(=O)[C@H]1CC[C@H](CNC(=O)CC[C@H](NC(=O)CCCCCCCCCOc2ccc(C(=O)O)cc2)C(=O)O)CC1)NC(=O)[C@@H](NC(=O)[C@H](Cc1ccccc1)NC(=O)[C@H](CCCN)NC(=O)C(C)(C)NC(=O)[C@H](CCC(N)=O)NC(=O)[C@H](C)NC(=O)[C@H](CCC(N)=O)NC(=O)[C@H](CCCN)NC(=O)[C@H](CC(=O)O)NC(=O)[C@H](CC(C)C)NC(=O)[C@](C)(CC(C)C)NC(=O)[C@@H](NC(=O)C(C)(C)NC(=O)[C@H](Cc1ccncc1)NC(=O)[C@H](CC(=O)O)NC(=O)[C@H](CO)NC(=O)[C@@H](NC(=O)[C@](C)(Cc1ccccc1F)NC(=O)[C@@H](NC(=O)CNC(=O)[C@H](CCC(=O)O)NC(=O)C(C)(C)NC(=O)[C@@H](N)Cc1ccc(O)cc1)[C@@H](C)O)[C@@H](C)O)[C@@H](C)CC)[C@@H](C)CC)C(=O)N[C@@H](CCCCNC(=O)COCCOCCNC(=O)COCCOCCNC(=O)[C@H]1CC[C@H](CNC(=O)CC[C@H](NC(=O)CCCCCCCCCOc2ccc(C(=O)O)cc2)C(=O)O)CC1)C(=O)NCC(=O)NCC(=O)N1CCC[C@H]1C(=O)N[C@@H](CO)C(=O)N[C@@H](CO)C(=O)NCC(=O)N[C@@H](C)C(=O)N1CCC[C@H]1C(=O)N1CCC[C@H]1C(=O)N1CCC[C@H]1C(=O)N[C@@H](CO)C(N)=O [Example 471] | – | – | – | – | – | – | – | – | – | – | 112 | 0.143 | > 9950 | > 9950 | 90.1 | 0.0107 | 0.197 | 110
